The record followed here is US9120808B2 (NABRIVA THERAPEUTICS AG, priority 2009, dated 2015).

For one experiment, the target named is SHV-1 β-lactamase (Klebsiella pneumoniae, UniProt P0AD64). Briefly: Cell-free β-lactamase inhibition study (nitrocefin hydrolysis). Type of experiment: biochemical. The conditions noted are these: 10 min pre-incubation at 37° C., nitrocefin substrate. As to the method:
(§1) Cell-Free-β-Lactamase Inhibition Study
(§2) Assays are performed with β-lactamases expressed in the pET system (Novagen, San Diego, Calif.) without signal peptides. They contain an N-terminal hexa-Histidine tag that is used for purification on Ni-NTA (Qiagen, Hilden, Germany). The compounds are prepared as 50 mM stocks in DMSO and diluted into buffer P1 (50 mM phosphate, pH 7) to a final concentration of 10% DMSO. All further dilutions are done in P2 (P1 with 10% DMSO). Enzyme and compound dilutions are pre-incubated for 10 min at 37° C. and the reaction is started with the addition of pre-warmed (37° C.) nitrocefin at a final concentration of […]. […] The initial velocity is determined and IC50 values are calculated using non-linear regression and sigmoidal dose response analysis with the PRISM 4.0 software (Graphpad Software Inc., San Diego, Calif.).

For a further experiment, the target named is TEM-1 β-lactamase (Escherichia coli, UniProt P62593). The experiment is described as above. Format: biochemical. The conditions noted are these: 10 min pre-incubation at 37° C., nitrocefin substrate. How it is done:
as §1, §2

Where two headings read alike, the source gives them in different places.

SHV-1 β-lactamase, sequence (P0AD64 whole entry, looked up): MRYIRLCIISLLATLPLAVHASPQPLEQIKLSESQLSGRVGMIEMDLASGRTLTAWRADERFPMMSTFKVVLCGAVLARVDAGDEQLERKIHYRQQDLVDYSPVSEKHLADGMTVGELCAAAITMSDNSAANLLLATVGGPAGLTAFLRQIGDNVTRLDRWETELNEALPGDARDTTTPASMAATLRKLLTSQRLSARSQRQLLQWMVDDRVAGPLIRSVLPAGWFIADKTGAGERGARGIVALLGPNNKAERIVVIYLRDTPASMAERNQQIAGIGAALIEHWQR
TEM-1 β-lactamase, sequence (P62593 whole entry, looked up): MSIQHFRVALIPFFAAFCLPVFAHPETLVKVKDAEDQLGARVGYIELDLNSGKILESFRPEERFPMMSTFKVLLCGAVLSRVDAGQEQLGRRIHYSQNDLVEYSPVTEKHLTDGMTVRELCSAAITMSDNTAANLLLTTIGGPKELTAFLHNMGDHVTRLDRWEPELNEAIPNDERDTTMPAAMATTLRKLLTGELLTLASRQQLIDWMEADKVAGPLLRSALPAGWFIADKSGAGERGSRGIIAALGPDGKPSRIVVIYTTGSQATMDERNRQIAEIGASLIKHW

For orientation: IC50 means the concentration at which inhibition is half-maximal. As to `O=CC=C1O[C@@H]2CC(=O)N2C1(C/C=C/c1ccccc1)C(=O)OCc1ccccc1` (single isomer, unassigned) [Example 6], the IC50 at SHV-1 β-lactamase (SHV-1, read-out: IC50) is 3950 nM; at TEM-1 β-lactamase, 2790 nM.

Take `O=CC=C1O[C@@H]2CC(=O)N2C1(CC=CCO)C(=O)OCc1ccccc1` (single isomer, unassigned) [Example 8]: at TEM-1 β-lactamase, the IC50 came out at 5640 nM. As to `O=CC=C1O[C@@H]2CC(=O)N2C1(CC=CCO)C(=O)OCc1ccccc1` (single isomer, unassigned) [Example 9], the IC50 at SHV-1 β-lactamase (SHV-1, read-out: IC50) was 1040 nM; against TEM-1 β-lactamase, 828 nM.

Regarding `COC(=O)C1(C/C=C/c2ccccc2)C(=CC=O)O[C@@H]2CC(=O)N21` (single isomer, unassigned) [Example 14], the IC50 amounted to 85100 nM on SHV-1 β-lactamase (SHV-1, read-out: IC50) and 19600 nM on TEM-1 β-lactamase.

On to `COC(=O)C1(C/C=C/c2ccccc2)C(=CC=O)O[C@@H]2CC(=O)N21` (single isomer, unassigned) [Example 15], for which the IC50 on SHV-1 β-lactamase (SHV-1, read-out: IC50) turned out to be 4430 nM; against TEM-1 β-lactamase it was 4270 nM. As to `O=C(O)C=C1O[C@@H]2CC(=O)N2C1(C/C=C/c1ccccc1)C(=O)OCc1ccccc1` (single isomer, unassigned) [Example 27], the IC50 at SHV-1 β-lactamase (SHV-1, read-out: IC50) worked out at 624 nM; at TEM-1 β-lactamase, 426 nM.

Consider `O=C(O)C=C1O[C@@H]2CC(=O)N2C1(C/C=C/c1ccccc1)C(=O)OCc1ccccc1` (single isomer, unassigned) [Example 28], for which the IC50 on SHV-1 β-lactamase (SHV-1, read-out: IC50) was 9320 nM; on TEM-1 β-lactamase, 45700 nM. The matching figures for `COC(=O)C1(C/C=C/c2ccccc2)C(=CC(=O)O)O[C@@H]2CC(=O)N21` (single isomer, unassigned) [Example 35]: 2310 nM and 1560 nM. For `COC(=O)C1(C/C=C/c2ccccc2)C(=CC(=O)O)O[C@@H]2CC(=O)N21` (single isomer, unassigned) [Example 36] the same measures were 642 nM and 408 nM. As for `O=C1OC(CI)CC1=C1O[C@@H]2CC(=O)N2C1C(=O)OCc1ccccc1` (single isomer, unassigned) [Example 41], the IC50 came out at 0.4 nM at SHV-1 β-lactamase (SHV-1, read-out: IC50) and 0.2 nM at TEM-1 β-lactamase. Take `O=C1OC(CI)CC1=C1O[C@@H]2CC(=O)N2C1C(=O)OCc1ccccc1` (single isomer, unassigned) [Example 42]: the IC50 amounted to 0.8 nM at SHV-1 β-lactamase (SHV-1, read-out: IC50) and 1.7 nM against TEM-1 β-lactamase. As to `CC1C/C(=C2\O[C@@H]3CC(=O)N3C2C(=O)OCc2ccccc2)C(=O)O1` (single isomer, unassigned) [Example 45], the IC50 against SHV-1 β-lactamase (IC50, SHV-1) turned out to be 3.4 nM; against TEM-1 β-lactamase, 1.7 nM. Take `CC1C/C(=C2\O[C@@H]3CC(=O)N3C2C(=O)OCc2ccccc2)C(=O)O1` (single isomer, unassigned) [Example 46]: the IC50 at SHV-1 β-lactamase (SHV-1, read-out: IC50) came to 0.5 nM; against TEM-1 β-lactamase it was 0.4 nM.

Compound `C=CCC(C=O)=C1O[C@@H]2CC(=O)N2C1C(=O)OCc1ccccc1` (stereo partly drawn) [Example 1, (5R)-3-(1-Formyl-but-3-enylidene)-7-oxo-4-oxa-1-aza-bicyclo[3.2.0]heptane-2-carboxylic acid benzyl ester] gave an IC50 on TEM-1 β-lactamase of 66.6 nM.

The compound `C=CCC1(C(=O)OCc2ccccc2)C(=CC=O)O[C@@H]2CC(=O)N21` (stereo partly drawn) [Example 2, (5R)-2-Allyl-7-oxo-3-[2-oxo-ethylidene]-4-oxa-1-aza-bicyclo[3.2.0]heptane-2-carboxylic acid benzyl ester] had an IC50 at TEM-1 β-lactamase of 945 nM. Same read-out and setting: the figure for `C=CCC(C=O)=C1O[C@@H]2CC(=O)N2C1(CC=C)C(=O)OCc1ccccc1` (stereo partly drawn) [Example 3, (5R)-2-Allyl-3-[1-formyl-but-3-enylidene]-7-oxo-4-oxa-1-aza-bicyclo[3.2.0]heptane-2-carboxylic acid benzyl ester] is 8390 nM; for `O=CC(C/C=C/c1ccccc1)=C1O[C@@H]2CC(=O)N2C1C(=O)OCc1ccccc1` (stereo partly drawn) [Example 4, (5R)-3-[1-Formyl-4-phenyl-but-3-enylidene]-7-oxo-4-oxa-1-aza-bicyclo[3.2.0]heptane-2-carboxylic acid benzyl ester] it is 89 nM. As to `O=CC=C1O[C@@H]2CC(=O)N2C1(C/C=C/c1ccccc1)C(=O)OCc1ccccc1` (stereo partly drawn) [Example 5, (5R)-7-oxo-3-[2-oxo-ethylidene]-2-(3-phenyl-allyl)-4-oxa-1-aza-bicyclo[3.2.0]heptane-2-carboxylic acid benzyl ester], the IC50 on SHV-1 β-lactamase (SHV-1, read-out: IC50) stood at 7140 nM; at TEM-1 β-lactamase, 4920 nM.

Consider `O=CC(CC=CCO)=C1O[C@@H]2CC(=O)N2C1C(=O)OCc1ccccc1` (stereo partly drawn) [Example 7, (5R)-3-[1-Formyl-5-hydroxy-pent-3-enylidene]-7-oxo-4-oxa-1-aza-bicyclo[3.2.0]heptane-2-carboxylic acid benzyl ester], for which the IC50 turned out to be 217 nM against SHV-1 β-lactamase (IC50, SHV-1) and 78.4 nM against TEM-1 β-lactamase.

For the compound `CC(=O)OCC=CCC(C=O)=C1O[C@@H]2CC(=O)N2C1C(=O)OCc1ccccc1` (stereo partly drawn) [Example 10, (5R)-3-[5-Acetoxy-1-formyl-pent-3-enylidene]-7-oxo-4-oxa-1-aza-bicyclo[3.2.0]heptane-2-carboxylic acid benzyl ester], the midpoint of inhibition against TEM-1 β-lactamase, the IC50, lay at 140 nM.

The compound `CC(=O)OCC=CCC1(C(=O)OCc2ccccc2)C(=CC=O)O[C@@H]2CC(=O)N21` (stereo partly drawn) [Example 11, (5R)-2-(4-Acetoxy-but-2-enyl)-7-oxo-3-[2-oxo-ethylidene]-4-oxa-1-aza-bicyclo[3.2.0]heptane-2-carboxylic acid benzyl ester] returned an IC50 against TEM-1 β-lactamase of 7310 nM.

Regarding `CC(=O)OCC=CCC1(C(=O)OCc2ccccc2)C(=CC=O)O[C@@H]2CC(=O)N21` (stereo partly drawn) [Example 12, (5R)-2-(4-Acetoxy-but-2-enyl)-7-oxo-3-[2-oxo-ethylidene]-4-oxa-1-aza-bicyclo[3.2.0]heptane-2-carboxylic acid benzyl ester], the midpoint of inhibition against TEM-1 β-lactamase, the IC50, lay at 5900 nM.

In turn, `COC(=O)C1C(=C(C=O)C/C=C/c2ccccc2)O[C@@H]2CC(=O)N12` (some centres unmarked) [Example 13] displayed an IC50 on TEM-1 β-lactamase of 639 nM.

On to `C=CCC(C=O)=C1O[C@@H]2CC(=O)N2C1C(=O)OC` (stereo partly drawn) [Example 16, (5R)-3-[1-Formyl-but-3-enylidene]-7-oxo-4-oxa-1-aza-bicyclo[3.2.0]heptane-2-carboxylic acid methyl ester], for which the IC50 at SHV-1 β-lactamase (SHV-1, read-out: IC50) was 80.5 nM; against TEM-1 β-lactamase, 65.2 nM. `C=CCC1(C(=O)OC)C(=CC=O)O[C@@H]2CC(=O)N21` (stereo partly drawn) [Example 17, (5R)-2-Allyl-7-oxo-3-[2-oxo-ethylidene]-4-oxa-1-aza-bicyclo[3.2.0]heptane-2-carboxylic acid methyl ester]: the IC50 on SHV-1 β-lactamase (SHV-1, read-out: IC50) stood at 21300 nM; on TEM-1 β-lactamase, 13300 nM.

Regarding `C=CCC1(C(=O)OCc2ccccc2)/C(=C/CO)O[C@@H]2CC(=O)N21` (stereo partly drawn) [Example 40, (5R)-2-Allyl-3-[2-hydroxy-ethylidene]-7-oxo-4-oxa-1-aza-bicyclo[3.2.0]heptane-2-carboxylic acid benzyl ester], the IC50 on TEM-1 β-lactamase worked out at 23600 nM.

Compound `CC1CC(=C2O[C@@H]3CC(=O)N3C2C(=O)O)C(=O)O1` (stereo partly drawn) [Example 50, (5R)-3-(5-Methyl-2-oxo-dihydro-furan-3-ylidene)-7-oxo-4-oxa-1-aza-bicyclo[3.2.0]heptane-2-carboxylic acid] yielded a half-inhibitory concentration (IC50) against TEM-1 β-lactamase of 4.2 nM. `COC(=O)C1/C(=C2/CC(CI)OC2=O)O[C@@H]2CC(=O)N12` (some centres unmarked) [Mixture of Example 43 and Example 44]: on SHV-1 β-lactamase (SHV-1, read-out: IC50), the IC50 came to 4.3 nM.
